What was measured:
[1] = target: human FAK (Homo sapiens (Human), UniProt Q05397); conditions: read-out: FAK IC50
[2] = target: human JAK2 (Homo sapiens (Human), UniProt O60674); conditions: read-out: JAK2 IC50
Chain of human JAK2 (O60674 815-1132): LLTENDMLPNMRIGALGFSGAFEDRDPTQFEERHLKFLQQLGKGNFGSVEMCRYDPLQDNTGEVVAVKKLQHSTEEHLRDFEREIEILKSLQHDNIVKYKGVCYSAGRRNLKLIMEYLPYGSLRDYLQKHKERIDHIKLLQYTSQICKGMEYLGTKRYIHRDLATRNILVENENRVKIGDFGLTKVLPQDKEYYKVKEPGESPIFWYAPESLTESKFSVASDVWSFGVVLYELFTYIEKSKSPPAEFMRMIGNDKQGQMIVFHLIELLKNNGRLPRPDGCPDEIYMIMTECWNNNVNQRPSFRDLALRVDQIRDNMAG

Chain of human FAK (Q05397 whole entry): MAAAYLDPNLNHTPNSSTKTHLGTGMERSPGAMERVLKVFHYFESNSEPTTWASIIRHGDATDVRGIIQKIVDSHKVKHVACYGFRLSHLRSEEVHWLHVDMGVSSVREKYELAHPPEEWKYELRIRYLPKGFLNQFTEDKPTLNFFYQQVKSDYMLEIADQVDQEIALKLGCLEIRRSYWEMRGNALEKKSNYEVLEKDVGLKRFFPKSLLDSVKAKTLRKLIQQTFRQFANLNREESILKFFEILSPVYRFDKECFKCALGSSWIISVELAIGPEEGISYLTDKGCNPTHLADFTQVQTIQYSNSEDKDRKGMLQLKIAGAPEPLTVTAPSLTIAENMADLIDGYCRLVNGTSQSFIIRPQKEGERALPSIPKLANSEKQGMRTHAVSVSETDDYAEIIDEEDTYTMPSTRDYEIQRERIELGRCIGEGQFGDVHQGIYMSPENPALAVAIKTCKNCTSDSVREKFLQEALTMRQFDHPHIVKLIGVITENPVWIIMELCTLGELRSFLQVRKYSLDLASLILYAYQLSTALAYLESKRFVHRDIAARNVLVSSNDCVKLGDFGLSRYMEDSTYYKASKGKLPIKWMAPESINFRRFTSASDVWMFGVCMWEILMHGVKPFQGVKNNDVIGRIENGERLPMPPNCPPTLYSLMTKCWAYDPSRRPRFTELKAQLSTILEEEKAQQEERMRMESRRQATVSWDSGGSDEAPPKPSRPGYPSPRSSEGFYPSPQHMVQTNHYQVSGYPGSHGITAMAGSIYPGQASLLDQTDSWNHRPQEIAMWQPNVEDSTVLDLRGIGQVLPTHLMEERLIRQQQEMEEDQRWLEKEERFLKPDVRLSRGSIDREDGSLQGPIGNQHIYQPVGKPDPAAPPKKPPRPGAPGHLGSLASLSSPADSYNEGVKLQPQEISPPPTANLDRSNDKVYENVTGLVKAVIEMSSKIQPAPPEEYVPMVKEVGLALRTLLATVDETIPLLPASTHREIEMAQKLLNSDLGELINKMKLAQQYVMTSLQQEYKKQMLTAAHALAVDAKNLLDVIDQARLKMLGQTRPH

In the case of CN(c1cccc(-c2cccn3nc(Nc4ccc(OCCN5CCCC5)cc4)nc23)c1)S(C)(=O)=O [Example 128, N-Methyl-N-(3-{2-[4-(2-pyrrolidin-1-yl-ethoxy)-phenylamino]-[1,2,4]triazolo[1,5-a]pyridin-8-yl}-phenyl)-methanesulfonamide], the IC50 [1] is reported as 2310 nM and the IC50 [2] is reported as 34 nM.

With COc1ncc(C(F)(F)F)cc1-c1cccn2nc(Nc3ccc(C4CCN(CC(=O)N(C)C)CC4)cc3)nc12 [Example 279, 2-(4-{4-[8-(2-Methoxy-5-trifluoromethyl-pyridin-3-yl)-[1,2,4]triazolo[1,5-a]pyridin-2-ylamino]-phenyl}-piperidin-1-yl)-N,N-dimethyl-acetamide] the IC50 [1] was 10000 nM and the IC50 [2] was 74.6 nM.

In the case of CN1CCC(c2ccc(Nc3nc4c(Nc5ccccc5CN(C)S(C)(=O)=O)cccn4n3)cc2)CC1 [Example 174, N-Methyl-N-(2-{2-[4-(1-methyl-piperidin-4-yl)-phenylamino]-[1,2,4]triazolo[1,5-a]pyridin-8-ylamino}-benzyl)-methanesulfonamide], the IC50 [1] is reported as 10000 nM and the IC50 [2] is reported as 111 nM.

CN1CCN(c2ccc(Nc3nc4c(Nc5ccccc5CS(C)(=O)=O)cccn4n3)cc2)CC1 [Example 164, N(8)-(2-Methanesulfonylmethyl-phenyl)-N(2)-[4-(4-methyl-piperazin-1-yl)-phenyl]-[1,2,4]triazolo[1,5-a]pyridine-2,8-diamine] showed an IC50 [1] of 1280 nM and an IC50 [2] of 22.1 nM.

CS(=O)(=O)c1ccc(-c2cccn3nc(Nc4cccc(N5CCN(CC(N)=O)CC5)c4)nc23)cc1 [Example 183, 2-(4-{3-[8-(4-Methanesulfonyl-phenyl)-[1,2,4]triazolo[1,5-a]pyridin-2-ylamino]-phenyl}-piperazin-1-yl)-acetamide] was tested, and the IC50 [1] was 6500 nM and the IC50 [2] was 0.65 nM.

Compound Fc1ccc(-n2cc(-c3cccn4nc(Nc5ccc(C6CCNCC6)cc5)nc34)cn2)cc1 [Example 282] has an IC50 [1] of 999 nM and an IC50 [2] of 2.12 nM.

Compound CN1CCC(c2ccc(Nc3nc4c(NCc5ccccc5S(C)(=O)=O)cccn4n3)cc2)CC1 [Example 140, N(8)-(2-Methanesulfonyl-benzyl)-N(2)-[4-(1-methyl-piperidin-4-yl)-phenyl]-[1,2,4]triazolo[1,5-a]pyridine-2,8-diamine] has an IC50 [1] of 124 nM and an IC50 [2] of 22.6 nM.

CN1CCN(c2ccc(Nc3nc4c(NCc5ccccc5N(C)S(C)(=O)=O)cccn4n3)cc2)CC1 [Example 147, N-Methyl-N-[2-({2-[4-(4-methyl-piperazin-1-yl)-phenylamino]-[1,2,4]triazolo[1,5-a]pyridin-8-ylamino}-methyl)-phenyl]-methanesulfonamide] was tested, and the IC50 [1] was 11.4 nM and the IC50 [2] was 29.1 nM.

Work on COc1cccc(CNc2cccn3nc(Nc4cccnc4)nc23)c1 [Example 398, N(8)-(3-Methoxy-benzyl)-N(2)-pyridin-3-yl-[1,2,4]triazolo[1,5-a]pyridine-2,8-diamine] yielded an IC50 [1] of 10000 nM and an IC50 [2] of 816 nM.

CN1CCN(c2ccc(Nc3nc4c(-c5cccc(CN(C)S(C)(=O)=O)c5)cccn4n3)cc2)CC1 [Example 175, N-Methyl-N-(3-{2-[4-(4-methyl-piperazin-1-yl)-phenylamino]-[1,2,4]triazolo[1,5-a]pyridin-8-yl}-benzyl)-methanesulfonamide] showed an IC50 [1] of 3000 nM and an IC50 [2] of 7.95 nM.

In the case of c1ccc(-c2cccn3nc(Nc4ccc5c(c4)CCNCC5)nc23)c(OCC2CC2)c1 [Example 301, [8-(2-Cyclopropylmethoxy-phenyl]-[1,2,4]triazolo[1,5a]pyridine-2-yl]-(2,3,4,5-tetrahydro-benzo[d]azepin-7-yl)-amine], the IC50 [1] is reported as 2790 nM and the IC50 [2] is reported as 112 nM.

CP(C)(=O)c1ccc(-c2cccn3nc(N(CCS(C)(=O)=O)c4cccc(C5CCN(CCS(C)(=O)=O)CC5)c4)nc23)cc1 [Example 199, {8-[4-(Dimethyl-phosphinoyl)-phenyl]-[1,2,4]triazolo[1,5-a]pyridin-2-yl}-(2-methanesulfonyl-ethyl)-{3-[1-(2-methanesulfonyl-ethyl)-piperidin-4-yl]-phenyl}-amine] gave an IC50 [1] of 10000 nM and an IC50 [2] of 95.8 nM.

CN1CCC(c2ccc(Nc3nc4c(Nc5cccnc5N(C)S(C)(=O)=O)cccn4n3)cc2)CC1 [Example 133, N-Methyl-N-(3-{2-[4-(1-methyl-piperidin-4-yl)-phenylamino]-[1,2,4]triazolo[1,5-a]pyridin-8-ylamino}-pyridin-2-yl)-methanesulfonamide] showed an IC50 [1] of 2070 nM and an IC50 [2] of 17.4 nM.

With CN1CCN(c2cccc(Nc3nc4c(-c5cccc(CN(C)S(C)(=O)=O)c5)cccn4n3)c2)CC1 [Example 176, N-Methyl-N-(3-{2-[3-(4-methyl-piperazin-1-yl)-phenylamino]-[1,2,4]triazolo[1,5-a]pyridin-8-yl}-benzyl)-methanesulfonamide] the IC50 [1] was 3000 nM and the IC50 [2] was 5.94 nM.

With CN1CCN(c2cccc(Nc3nc4c(NCc5ccccc5CN(C)S(C)(=O)=O)cccn4n3)c2)CC1 [Example 157, N-Methyl-N-[2-({2-[3-(4-methyl-piperazin-1-yl)-phenylamino]-[1,2,4]triazolo[1,5-a]pyridin-8-ylamino}-methyl)-benzyl]-methanesulfonamide] the IC50 [1] was 300 nM and the IC50 [2] was 220 nM.

COc1ncccc1-c1cccn2nc(Nc3ccc(C4CCN(C(=O)OC(C)(C)C)CC4)cc3)nc12 [Example 271] was tested, and the IC50 [1] was 10000 nM and the IC50 [2] was 675 nM.

CC(C)(C)OC(=O)N1CCN(c2ccc(Nc3nc4cccc(-c5ccc(S(C)(=O)=O)cc5)n4n3)cc2)CC1 [Example 75, 4-{4-[5-(4-Methanesulfonyl-phenyl)-[1,2,4]triazolo[1,5-a]pyridin-2-ylamino]-phenyl}-piperazine-1-carboxylic acid tert-butyl ester] was tested, and the IC50 [1] was 359 nM and the IC50 [2] was 1.3 nM.

COCc1ccccc1-c1cccc2nc(Nc3ccc4c(c3)CCN(CCS(C)(=O)=O)CC4)nn12 [Example 230, [3-(2-Methanesulfonyl-ethyl)-2,3,4,5-tetrahydro-1H-benzo[d]azepin-7-yl]-[5-(2-methoxymethyl-phenyl)-[1,2,4]triazolo[1,5-a]pyridin-2-yl]-amine] showed an IC50 [1] of 2000 nM and an IC50 [2] of 27.6 nM.

In the case of COc1ccc(C(F)(F)F)cc1-c1cccn2nc(Nc3ccc(N4CCN(C)CC4)cc3)nc12 [Example 254, [8-(2-Methoxy-5-trifluoromethyl-phenyl)-[1,2,4]triazolo[1,5-a]pyridin-2-yl]-[4-(4-methyl-piperazine-1-yl)-phenyl]-amine], the IC50 [1] is reported as 1080 nM and the IC50 [2] is reported as 31.3 nM.

Work on COc1ccc(-c2cccn3nc(Nc4ccc(N5CCOCC5)cc4)nc23)cn1 [Example 8, [8-(6-Methoxy-pyridin-3-yl)-[1,2,4]triazolo[1,5-a]pyridin-2-yl]-(4-morpholin-4-yl-phenyl)-amine] yielded an IC50 [1] of 1480 nM and an IC50 [2] of 13.4 nM.

For CN1CCN(c2cccc(Nc3nc4cccc(-c5ccc(CN6CCS(=O)(=O)CC6)cc5)n4n3)c2)CC1 [Example 71, 5-{4-[(1,1-dioxidothiomorpholin-4-yl)methyl]phenyl}-N-[3-(4-methylpiperazin-1-yl)phenyl][1,2,4]triazolo[1,5-a]pyridin-2-amine], the IC50 [1] was 502 nM and the IC50 [2] was 0.8 nM.

COc1ccccc1CNc1cccn2nc(Nc3cccnc3)nc12 [Example 400, N(8)-(2-Methoxy-benzyl)-N(2)-pyridin-3-yl-[1,2,4]triazolo[1,5-a]pyridine-2,8-diamine] showed an IC50 [1] of 3120 nM and an IC50 [2] of 32.3 nM.

Cc1ccc(-n2cc(-c3cccn4nc(Nc5ccc(C6CCNCC6)cc5)nc34)cn2)cc1 [Example 289, (4-Piperidin-4-yl-phenyl)-[8-(1-p-tolyl-1H-pyrazol-4-yl)-[1,2,4]triazolo[1,5-a]pyridine-2-yl]-amine] was tested, and the IC50 [1] was 2420 nM and the IC50 [2] was 4.04 nM.

For CN1CCC(c2ccc(Nc3nc4c(NCc5cccnc5N(C)S(C)(=O)=O)cccn4n3)cc2)CC1 [Example 123, N-Methyl-N-[3-({2-[4-(1-methyl-piperidin-4-yl)-phenylamino]-[1,2,4]triazolo[1,5-a]pyridin-8-ylamino}-methyl)-pyridin-2-yl]-methanesulfonamide], the IC50 [1] was 77.3 nM and the IC50 [2] was 40.3 nM.

With CN1CCN(c2ccc(Nc3nc4c(-c5ccc(S(C)(=O)=O)cc5)cc(C(F)(F)F)cn4n3)cn2)CC1 [Example 104, [8-(4-Methanesulfonyl-phenyl)-6-trifluoromethyl-[1,2,4]triazolo[1,5-a]pyridin-2-yl]-[6-(4-methyl-piperazin-1-yl)-pyridin-3-yl]-amine] the IC50 [1] was 669 nM and the IC50 [2] was 928 nM.

COCc1ccccc1-c1cccc2nc(Nc3ccc4c(c3)CCN(CC(=O)N(C)C)CC4)nn12 [Example 229, 2-{7-[5-(2-Methoxymethyl-phenyl)-[1,2,4]triazolo[1,5-a]pyridin-2-ylamino]-1,2,4,5-tetrahydro-benzo[d]azepin-3-yl}-N,N-dimethyl-acetamide] showed an IC50 [1] of 3000 nM and an IC50 [2] of 47.4 nM.

COc1ccc(Nc2nc3c(Nc4ccccc4S(C)(=O)=O)cccn3n2)cc1 [Example 47, N(8)-(2-Methanesulfonyl-phenyl)-N(2)-(4-methoxy-phenyl)-[1,2,4]triazolo[1,5-a]pyridine-2,8-diamine] gave an IC50 [1] of 3000 nM and an IC50 [2] of 12.8 nM.

Work on CC(C)S(=O)(=O)c1ccc(-c2cccn3nc(Nc4cccc(N5CCN(C)CC5)c4)nc23)cc1 [Example 53, [3-(4-Methyl-piperazin-1-yl)-phenyl]-{8-[4-(propane-2-sulfonyl)-phenyl]-[1,2,4]triazolo[1,5-a]pyridin-2-yl}-amine] yielded an IC50 [1] of 865 nM and an IC50 [2] of 1.3 nM.

CN1CCN(c2cccc(Nc3nc4c(-c5ccc(S(C)(=O)=O)cc5)cccn4n3)c2)C(=O)C1 [Example 204, 1-{3-[8-(4-Methanesulfonyl-phenyl)-[1,2,4]triazolo[1,5-a]pyridin-2-ylamino]-phenyl}-4-methyl-piperazin-2-one] was tested, and the IC50 [1] was 10000 nM and the IC50 [2] was 1.63 nM.

Work on CN1CCN(c2cccc(Nc3nc4c(-c5ccc(N6CCC(N7CCN(C)CC7)CC6)cc5)cccn4n3)c2)CC1 [Example 206, [3-(4-Methyl-piperazin-1-yl)-phenyl]-(8-{4-[4-(4-methyl-piperazin-1-yl)-piperidin-1-yl]-phenyl}-[1,2,4]triazolo[1,5-a]pyridin-2-yl)-amine] yielded an IC50 [1] of 3000 nM and an IC50 [2] of 45 nM.

Source: patent publication US8501936B2 (priority 2009, dated 2013)
